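The concentration for 50% growth inhibition is given as GI50. TGI: concentration producing complete growth inhibition.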
Assays:
Assay in all cases: inhibition of tumour cell growth, NCI panel, 384-well format
[1] = tested on: KM12 colon
[2] = tested on: COLO 205 colon
[3] = tested on: SK-OV-3 ovarian
[4] = tested on: OVCAR-5 ovarian
[5] = tested on: TK-10 renal
[6] = tested on: BT-549 breast
[7] = tested on: K-562 leukemia
[8] = tested on: IGROV1 ovarian
[9] = tested on: OVCAR-3 ovarian
[10] = tested on: SK-MEL-2 melanoma
[11] = tested on: M14 melanoma
[12] = tested on: 786-0 renal
[13] = tested on: HCC-2998 colon
[14] = tested on: LOX IMVI melanoma
[15] = tested on: MDA-MB-231 breast
[16] = tested on: A549 NSCLC
[17] = tested on: SK-MEL-28 melanoma
[18] = tested on: EKVX NSCLC
[19] = tested on: NCI-H322M lung
[20] = tested on: SF-268 CNS
[21] = tested on: SF-295 CNS
[22] = tested on: UACC-257 melanoma
[23] = tested on: SNB-19 CNS
[24] = tested on: HCT-15 colon
[25] = tested on: HL-60(TB) leukemia
[26] = tested on: SW-620 colon
[27] = tested on: OVCAR-8 ovarian
[28] = tested on: OVCAR-4 ovarian
[29] = tested on: NCI-H460 NSCLC
[30] = tested on: NCI-H522 lung
[31] = tested on: MDA-MB-435 melanoma
[32] = tested on: MCF7 breast
[33] = tested on: RXF 393 renal
[34] = tested on: MDA-MB-468 breast
[35] = tested on: NCI/ADR-RES ovarian
[36] = tested on: MALME-3M melanoma
[37] = tested on: HCT-116 colon
[38] = tested on: DU-145 prostate
[39] = tested on: HS 578T breast
[40] = tested on: CCRF-CEM leukemia
[41] = tested on: MOLT-4 leukemia
[42] = tested on: U251 glioblastoma
[43] = tested on: PC-3 prostate
[44] = tested on: SF-539 CNS
[45] = tested on: CAKI-1 renal
[46] = tested on: RPMI-8226 leukemia
[47] = tested on: SR leukemia

Structure (SMILES): CCCS(=O)(=O)Nc1ccc(F)c(C(=O)c2c[nH]c3ncc(-c4ccc(Cl)cc4)cc23)c1F
- GI50 [1]: 4.11 µM
- TGI [1]: 13.1 µM
- GI50 [2]: 0.0425 µM
- TGI [2]: 1.18 µM
- GI50 [3]: 5.57 µM
- TGI [3]: 12 µM
- GI50 [4]: 4.41 µM
- TGI [4]: 21.3 µM
- GI50 [5]: 13.5 µM
- TGI [5]: 22.3 µM
- GI50 [6]: 5.9 µM
- TGI [6]: 19.2 µM
- GI50 [7]: 1.66 µM
- TGI [7]: 3.43 µM
- GI50 [8]: 1.87 µM
- TGI [8]: 8.76 µM
- GI50 [9]: 8.19 µM
- TGI [9]: 16.1 µM
- GI50 [10]: 0.0758 µM
- TGI [10]: 0.33 µM
- GI50 [11]: 0.0305 µM
- TGI [11]: 0.321 µM
- GI50 [12]: 4.03 µM
- TGI [12]: 13.5 µM
- GI50 [13]: 0.593 µM
- TGI [13]: 1.96 µM
- GI50 [14]: 3.93 µM
- TGI [14]: 11.6 µM
- GI50 [15]: 3.8 µM
- TGI [15]: 8.85 µM
- GI50 [16]: 3.99 µM
- TGI [16]: 10.8 µM
- GI50 [17]: 0.0274 µM
- TGI [17]: 0.388 µM
- GI50 [18]: 7 µM
- TGI [18]: 12.7 µM
- GI50 [19]: 4.65 µM
- TGI [19]: 16 µM
- GI50 [20]: 7.88 µM
- TGI [20]: 15.8 µM
- GI50 [21]: 3.34 µM
- TGI [21]: 5.93 µM
- GI50 [22]: 0.347 µM
- GI50 [23]: 8.27 µM
- TGI [23]: 23.4 µM
- GI50 [24]: 5.83 µM
- TGI [24]: 13.5 µM
- GI50 [25]: 0.902 µM
- TGI [25]: 5.03 µM
- GI50 [26]: 4.61 µM
- TGI [26]: 23.3 µM
- GI50 [27]: 7.8 µM
- TGI [27]: 15.7 µM
- GI50 [28]: 8.45 µM
- TGI [28]: 20.6 µM
- GI50 [29]: 4.97 µM
- TGI [29]: 13.6 µM
- GI50 [30]: 7.93 µM
- TGI [30]: 16 µM
- GI50 [31]: 0.281 µM
- TGI [31]: 14.6 µM
- GI50 [32]: 6.82 µM
- TGI [32]: 13.3 µM
- GI50 [33]: 2.36 µM
- TGI [33]: 6.45 µM
- GI50 [34]: 5.74 µM
- TGI [34]: 9.38 µM
- GI50 [35]: 9.06 µM
- TGI [35]: 22.4 µM
- GI50 [36]: 0.0242 µM
- TGI [36]: 0.0897 µM
- GI50 [37]: 3.85 µM
- TGI [37]: 11.5 µM
- GI50 [38]: 5.88 µM
- TGI [38]: 18.6 µM
- GI50 [39]: 2.52 µM
- TGI [39]: 6.2 µM
- GI50 [40]: 4.15 µM
- TGI [40]: 6.41 µM
- GI50 [41]: 3.23 µM
- TGI [41]: 8.74 µM
- GI50 [42]: 4.35 µM
- TGI [42]: 9.9 µM
- GI50 [43]: 8.55 µM
- TGI [43]: 21.3 µM
- GI50 [44]: 4.33 µM
- TGI [44]: 10.5 µM
- GI50 [45]: 3.69 µM
- TGI [45]: 10.5 µM
- GI50 [46]: 3.38 µM
- TGI [46]: 6.5 µM
- GI50 [47]: 1.67 µM
- TGI [47]: 4.22 µM

Source: PubChem BioAssay (NCI)
